From US10774076B2, “Benzazole compounds and methods for making and using the compounds” (Rigel Pharmaceuticals, Inc., priority 2015, dated 2020)

Tests used:
[1] = system: IL23-p19; assay: Compound screening using DC cells: LPS-induced IL-23 (p19/p40) ELISA in IFNγ-primed dendritic cells differentiated from human PBMC; format: cell-based; conditions: Dendritic cell, human PBMC-derived dendritic cells, LPS 1 μg/ml, 18 hours, 10 pt
Procedure: Compound Screening Using DC Cells
Human PBMC cells (400 million) obtained from the vendor were transferred into a T-175 flask containing 15 ml RPMI media (10% FBS) and incubate for 2 hours at 37° C. After 2 hours, the media including floating cells was aspirated out carefully and 12 ml of fresh RPMI media (10% FBS) containing GMCSF (100 ng/ml) and IL4 (20 ng/ml) was added, and the flask was kept in a 37° C. incubator for 7 days.
After 3 days, fresh GMCSF (100 ng/ml) and IL4 (20 ng/ml) were added to the flask and the incubation continued. After 7 days, the fully differentiated cells were harvested by spinning down (1200 rpm/5 min) and aspirating the media. The cells were suspended in fresh RPMI media (10% FBS) containing 50 ng/ml IFNγ (1000 U/ml) and then plated (50K/well in 100 μl) onto a white clear bottom 96 well plate and left in a 37° C. incubator for 24 hours.
After 24 hours incubation, 100 μl of RPMI media was added containing 2× concentrated test compound per well to the above cell-culture media (final concentration becomes 1×) and the plates were pre-incubated for 1 hour at 37° C. before stimulating with LPS.
After 1 hour compound pre-incubation, 10 μl per well of 20× concentrated LPS solution in RPMI media was added to give a final concentration of 1 μg/ml. The mixture was shaken and incubated the plates at 37° C. for an additional 18 hours.
155 μl of the supernatant was harvested from each well carefully (without the tip touching the bottom of the well) and to the remaining 50 μl/well of the cell culture plate was added 50 μl of Cell Titer Glo reagent. The mixture was incubated for 1-2 minutes on a shaker and the plate was read for luminescence intensity to determine the compound cytotoxicity. The cell culture supernatant collected above was used to carry out IL23 ELISA (65 μl—Supernatant) and IL10 ELISA (90 μl—Supernatant) as described below.
Human IL-23 (p19/p40) ELISA Protocol (e-Biosciences)
To 10.5 ml PBS add 50 μl of anti-IL23 (p19) was added capture antibody (2.5 μg/ml). The mixture was mixed well and 100 μl of the coating solution was added to each well of the 96 well white plates from Pierce. The wells were covered and incubated overnight at 4° C.
The anti-IL23 (p19)-antibody-coated plates were washed 2× using TBST (use plate washer) and blocked using 200 μl of 0.5% Casein for 1.5-2 hours at room temperature with shaking.
The plates were washed 2× using TBST and the supernatant was transferred (65 μl/well) to the above pre-blocked/IL23(p19)-antibody-coated 96 well plate, and incubated at room temperature for 1.5 hours with shaking.
The plates were washed 4× using TBST (plate washer) and 100 μl/well detection antibody solution prepared from 2 μl of biotin labeled anti-IL-12 (p40/p70) antibody in 11 ml 1% BSA/PBS solution (I-5000 dilution) was added. The plates were incubated for 1 hour with shaking at Room temperature.
Again, the plates were washed 4× with TBST and 100 μl of HRP labeled Streptavidin (R&D Systems) solution (10 μl/10 ml 1% BSA solution) was added, and the plates were incubated at room temperature for another 45 minutes with shaking.
After 45 minutes, the plates were washed with TBST 4× and 100 ul/well Super Signal ELISA Pico Chemiluminescent Substrate from Pierce (3.5 ml A+3.5 ml B+3.5 ml MQ water) was added. The plates were shaken for 1-2 minutes then read on a plate reader.

[2] = system: IL23p19; assay: LPS Induced IL23p19 in THP-1 Cells (with IFNγ Primed) Assay; format: cell-based; conditions: Homo sapiens, IFNγ primed (50 ng/mL), LPS 1 ug/mL, 18 hours, 10 pt, read-out: IL23-p19 ELISA, THP1-IFNy, LPS, 10 pt EC50
Description: LPS Induced IL23p19 in THP-1 Cells (with IFNγ Primed) Assay
THP-1 Cells (ATCC, Cat # TIB-202), Dimethyl Sulfoxide (DMSO) (Sigma-Aldrich, Cat # D2650), RPMI 1640 (Cellgro, Cat #10-040-CM), Fetal Bovine Serum (Sigma, Cat # F4135), Albumin From Bovine Serum (BSA) (Sigma-Aldrich, Cat # A7906), LPS (Serotype K-235, Sigma, Product Number L 2143), IFNγ (Peprotech, Cat #300-02)
Capture antibody: Human IL-23p19 ELISA (e-Bioscience, Cat. #14-7238-85),
Detection antibody: Primary Mouse Biotinylated anti-human IL-12(p40/p70) (e-Bioscience, Cat. #13-7129-85), Secondary HRP-conjugated Streptavidin (R&D Systems, Cat # DY998), 1×PBST Washing Buffer (PBS-Tween tablet) (VWR International, Cat #80058-558), ELISA Blocking Buffer (PBS with 1% BSA), ELISA Dilution Buffer (PBS with 1% BSA), 384 Well Flat-Bottom, MaxiSorp Black Immuno Plates (Thermo Scientific, Cat #12-565-346), 384 Well Flat-Bottom, White Tissue Culture Plates (Thermo Scientific, Cat #12-565-343), Super Signal ELISA Pico Chemiluminescent Substrate (Thermo Scientific, Cat #37070), Cell Titer Glo reagent (Promega, Cat # G7573), Positive control, IKK2VI inhibitor (Calbiochem, Cat #401483), AquaMax 4000 plate washer (Molecular Devices), Luminometer, Wallac Victor2 1420 Multilabel Counter. Method THP-1 Cells Stimulation:
On day 1, 50K/well THP-1 cells were seeded and primed with IFNγ (50 ng/mL) in 384-well plates for about 18 hours in RPMI media with 10% FBS. On day 2, the compound was serially diluted in DMSO from 5 mM in 3-fold dilutions, and then diluted 1:125 in RPMI media with 10% FBS. 50 μL/well 2× compound was added to 50 μL/well THP-1 cells (with IFNγ primed) in duplicate in 384 well tissue culture plates. The cells were pre-incubated with compound for 1 hour at 37° C., 5% CO2 before addition of 10 μL/well 11×LPS to give a final concentration of 1 ug/mL LPS. Day 3, after stimulation for 18 hours at 37° C., 5% CO2, the assay plate was centrifuged and 70 μL/well supernatant was harvested. IL-23p19 protein in 70 μL/well of supernatant was measured by sandwich ELISA, and 25 μl/well Cell Titer Glo reagent was added to the remaining cells to measure compound toxicity.
Human IL-23p19 Sandwich ELISA:
Maxisorp immuno ELISA plates were pre-coated with 25 μL/well of anti-IL-23p19 capture antibody (2.5 ug/mL) in PBS overnight at room temperature. After washing with 1×PBST, the plates were blocked using 100 μL/well of 1% BSA in PBS for 2 hours at room temperature. The plates were washed three times with 1×PBST and 70 μL/well supernatant were added. The plates were incubated at room temperature for 2 hours with shaking and washed three times with 1×PBST. 25 μL/well of biotin labeled anti-IL-12(p40/p70) detection antibody (100 ng/mL) in PBS with 1% BSA was added and the plates were incubated at room temperature for 2 hours with shaking. After washing three times with 1×PBST, 25 μL/well of streptavidin-HRP (1:200) in PBS with 1% BSA was added and the plates were incubated at room temperature for 20 minutes with shaking. The plates were washed three times with 1×PBST and 25 μL/well of Super Signal ELISA Pico Chemiluminescent Substrate were added. The plates were read with a luminometer, and the chemiluminescence values were entered into Athena (Rigel) for curve fitting, EC50 calculation, and database storage.

Structure (SMILES) | EC50 [1] [nM] | EC50 [2] [nM]
O=C(Nc1cc2oc(N3CCOCC3)nc2cc1N1CCCCC1)c1csc(-c2cn[nH]c2)n1 [Compound I-12, N-(2-morpholino-5-(piperidin-1-yl)benzo[d]oxazol-6-yl)-2-(1H-pyrazol-4-yl)thiazole-4-carboxamide] | 20 | 53.9
Cc1cc(-c2nc(C(=O)Nc3cc4oc(N5CCOCC5)nc4cc3N3CCCCC3)cs2)ccn1 [Compound I-14, 2-(2-methylpyridin-4-yl)-N-(2-morpholino-5-(piperidin-1-yl)benzo[d]oxazol-6-yl)thiazole-4-carboxamide] | 17900 | 10200
CN1CCN(c2nc3cc(N4CCCCC4)c(NC(=O)c4ccc(-c5ccc(N)nc5)o4)cc3o2)CC1 [Compound I-15, 5-(6-aminopyridin-3-yl)-N-(2-(4-methylpiperazin-1-yl)-5-(piperidin-1-yl)benzo[d]oxazol-6-yl)furan-2-carboxamide] | 1690 | 73000
CN1CCN(c2nc3cc(N4CCCCC4)c(NC(=O)c4ccc(-c5cn[nH]c5)o4)cc3o2)CC1 [Compound I-16, N-(2-(4-methylpiperazin-1-yl)-5-(piperidin-1-yl)benzo[d]oxazol-6-yl)-5-(1H-pyrazol-4-yl)furan-2-carboxamide] | 32.2 | 25.8
CN1CCN(c2nc3cc(N4CCCCC4)c(NC(=O)c4ccc(-c5cc[nH]n5)o4)cc3o2)CC1 [Compound I-17, N-(2-(4-methylpiperazin-1-yl)-5-(piperidin-1-yl)benzo[d]oxazol-6-yl)-5-(1H-pyrazol-3-yl)furan-2-carboxamide] | 1020 | 1230
Cc1cc(-c2ccc(C(=O)Nc3cc4oc(N5CCN(C)CC5)nc4cc3N3CCCCC3)o2)ccn1 [Compound I-18, N-(2-(4-methylpiperazin-1-yl)-5-(piperidin-1-yl)benzo[d]oxazol-6-yl)-5-(2-methylpyridin-4-yl)furan-2-carboxamide] | 889 | 7510
CN1CCN(c2nc3cc(N4CCCCC4)c(NC(=O)c4csc(-c5ccc(N)nc5)n4)cc3o2)CC1 [Compound I-19, 2-(6-aminopyridin-3-yl)-N-(2-(4-methylpiperazin-1-yl)-5-(piperidin-1-yl)benzo[d]oxazol-6-yl)thiazole-4-carboxamide] | 674 | 938
CN1CCN(c2nc3cc(N4CCCCC4)c(NC(=O)c4csc(-c5cn[nH]c5)n4)cc3o2)CC1 [Compound I-20, N-(2-(4-methylpiperazin-1-yl)-5-(piperidin-1-yl)benzo[d]oxazol-6-yl)-2-(1H-pyrazol-4-yl)thiazole-4-carboxamide] | 18 | 22.4
CN1CCN(c2nc3cc(N4CCCCC4)c(NC(=O)c4csc(-c5cc[nH]n5)n4)cc3o2)CC1 [Compound I-21, N-(2-(4-methylpiperazin-1-yl)-5-(piperidin-1-yl)benzo[d]oxazol-6-yl)-2-(1H-pyrazol-3-yl)thiazole-4-carboxamide] | 1710 | 2180
Cc1cc(-c2nc(C(=O)Nc3cc4oc(N5CCN(C)CC5)nc4cc3N3CCCCC3)cs2)ccn1 [Compound I-22, N-(2-(4-methylpiperazin-1-yl)-5-(piperidin-1-yl)benzo[d]oxazol-6-yl)-2-(2-methylpyridin-4-yl)thiazole-4-carboxamide] | 3180 | 677
O=C(Nc1cc2oc(N3CCOCC3)nc2cc1N1CCC(F)CC1)c1ccc(-c2cn[nH]c2)o1 [Compound I-23, N-(5-(4-fluoropiperidin-1-yl)-2-morpholinobenzo[d]oxazol-6-yl)-5-(1H-pyrazol-4-yl)furan-2-carboxamide] | 157 | 75.7
Cc1cc(-c2ccc(C(=O)Nc3cc4oc(N5CCOCC5)nc4cc3N3CCC(F)CC3)o2)ccn1 [Compound I-24, N-(5-(4-fluoropiperidin-1-yl)-2-morpholinobenzo[d]oxazol-6-yl)-5-(2-methylpyridin-4-yl)furan-2-carboxamide] | 5770 | 1080
O=C(Nc1cc2oc(N3CCOCC3)nc2cc1N1CCC(F)CC1)c1csc(-c2cn[nH]c2)n1 [Compound I-25, N-(5-(4-fluoropiperidin-1-yl)-2-morpholinobenzo[d]oxazol-6-yl)-2-(1H-pyrazol-4-yl)thiazole-4-carboxamide] | 122 | 48.2
O=C(Nc1cc2oc(N3CCOCC3)nc2cc1N1CCC(F)(F)CC1)c1ccc(-c2cn[nH]c2)o1 [Compound I-27, N-(5-(4,4-difluoropiperidin-1-yl)-2-morpholinobenzo[d]oxazol-6-yl)-5-(1H-pyrazol-4-yl)furan-2-carboxamide] | 747 | 528
O=C(Nc1cc2oc(N3CCOCC3)nc2cc1N1CCC(F)(F)CC1)c1csc(-c2cn[nH]c2)n1 [Compound I-29, N-(5-(4,4-difluoropiperidin-1-yl)-2-morpholinobenzo[d]oxazol-6-yl)-2-(1H-pyrazol-4-yl)thiazole-4-carboxamide] | 106 | 302
